Experimental data: patent US7928139B2 (Amgen Inc., priority 2006, dated 2011)
pIC50: −log10 of the molar value.

Target: HIF PHD2 (Homo sapiens, UniProt Q9GZT9)
Experiment: PHD2 inhibition assay (TR-FRET, VCB-Eu detection of hydroxylated P564-HIF1α peptide)
Format: biochemical
Conditions: 2 nM PHD2, 100 nM P564-HIF1α peptide, 0.25 μM 2-oxoglutarate, 100 μM FeCl2, 2 mM ascorbic acid
Experimental: Inhibition of HIF PHD2 activity was quantified utilizing the TR-FRET technology. HIF PHD2 catalyzes a hydroxyl modification on the proline residue of the P564-HIF1α peptide substrate (Biotin-DLEMLAPYIPMDDDFQL (SEQ ID NO: 7)) resulting in recognition and binding of the europylated Von Hippel-Lindau protein (pVHL), elongin B and elongin C heterotrimeric (VCB-Eu) complex.
The PHD2 inhibition assay was executed by addition of freshly dissolved FeCl2 to 178.57 μM (100 μM final concentration) in PHD2 Reaction Buffer containing 30 mM MES, pH 6, 10 mM NaCl, 0.25% Brij-35, 0.01% BSA, and 1% DMSO. 28 μL of the iron solution and 2 μL of inhibitor compounds serially diluted in 100% DMSO (5% DMSO final) were added to black polypropylene 96-well microtiter plates. To that, 10 μL of 10 nM PHD2 (2 nM final) was added to all wells of the plate except for the 8 wells of column 12 (LO control), and allowed to incubate at room temperature on the shaker for one hour. Column 6 was the HI control containing PHD2 enzyme and 5% DMSO vehicle, but no inhibitor compound. To initiate the PHD2 enzymatic reaction, 10 μL of a solution containing 500 nM P564-HIF1α peptide (100 nM final), 10 mM ascorbic acid (2 mM final), and 1.25 μM 2-oxoglutarate (α-ketoglutarate; 0.25 μM final) in PHD2 Reaction Buffer was added to all wells of the plate and allowed to incubate on the shaker at room temperature for one hour.
The reaction was terminated by addition of 25 μL TR-FRET Buffer (50 mM TRIS-HCl, pH 9, 100 mM NaCl, 0.05% BSA, and 0.5% Tween-20) containing 150 mM succinate (product inhibitor; 50 mM final), 75 nM streptavidin-APC (25 nM final), and 7.5 nM VCB-Eu (2.5 nM final). The TR-FRET detection reagents were placed on a shaker for 1 hour to reach binding equilibrium before reading on the Discovery platform (PerkinElmer). Europium is excited at 315 nm and phosphoresces at 615 nm with a large Stoke's shift. APC, in turn, emits at 655 nm upon excitation at 615 nm. The TR-FRET signal is measured as the ratio of the APC 655 nm signal divided by the internal europium reference 615 nm emission signal.
The POC (percentage of control) was determined by comparing the signal from hydroxylated peptide substrate in the enzyme reaction containing inhibitor compound with that from PHD2 enzyme with DMSO vehicle alone (HI control), and no enzyme (LO control). POC was calculated using the formula: % control (POC)=(cpd−average LO)/(average HI−average LO)*100. Data (consisting of POC and inhibitor concentration in μM) was fitted to a 4-parameter equation (y=A+((B−A)/(1+((x/C)^D))), where A is the minimum y (POC) value, B is the maximum y (POC), C is the x (cpd concentration) at the point of inflection and D is the slope factor) using a Levenburg-Marquardt non-linear regression algorithm.

Chain of HIF PHD2 (Q9GZT9 whole entry): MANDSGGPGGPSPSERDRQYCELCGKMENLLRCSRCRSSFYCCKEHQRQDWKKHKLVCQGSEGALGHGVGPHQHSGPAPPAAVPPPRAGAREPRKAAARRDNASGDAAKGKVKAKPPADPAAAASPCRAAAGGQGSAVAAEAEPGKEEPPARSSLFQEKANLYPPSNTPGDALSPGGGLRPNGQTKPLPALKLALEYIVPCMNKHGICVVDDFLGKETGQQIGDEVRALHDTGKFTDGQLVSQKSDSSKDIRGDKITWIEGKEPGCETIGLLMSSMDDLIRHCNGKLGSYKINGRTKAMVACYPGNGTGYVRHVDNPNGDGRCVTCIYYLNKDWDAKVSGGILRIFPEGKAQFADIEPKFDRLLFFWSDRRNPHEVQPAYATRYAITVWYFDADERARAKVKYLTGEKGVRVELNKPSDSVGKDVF

pIC50 | SMILES
> 7.00 | C[C@@]1(C#N)C(=O)C(C(=O)NCC(=O)O)=C(O)c2cc(Cl)ccc21 [Example 85, N-(((1R)-6-Chloro-1-cyano-4-hydroxy-1-methyl-2-oxo-naphthalen-3-yl)carbonyl)glycine]
6.30 to 7.00 | CN(C)c1ccc(-c2ccc3c(c2)C(O)=C(C(=O)NCC(=O)O)C(=O)C3(C)C)cc1 [Example 36, N-((6-(4-(Dimethylamino)phenyl)-4-hydroxy-1,1-dimethyl-2-oxo-naphthalen-3-yl)carbonyl)glycine]
> 7.00 | CC1(C)C(=O)C(C(=O)NCC(=O)O)=C(O)c2ccc(O)c(F)c21 [Example 23, N-((8-Fluoro-4,7-dihydroxy-1,1-dimethyl-2-oxo-naphthalen-3-yl)carbonyl)glycine]
> 7.00 | CC1(C)C(=O)C(C(=O)NCC(=O)O)=C(O)c2ccc(C(F)(F)F)cc21 [Example 49, N-((7-Trifluoromethyl-4-hydroxy-1,1-dimethyl-2-oxo-naphthalen-3-yl)carbonyl)glycine]
6.30 to 7.00 | C[C@H](NC(=O)C1=C(O)c2cc(Cl)ccc2C(C)(C)C1=O)C(=O)O [Example 66, N-((6-Chloro-4-hydroxy-1,1-dimethyl-2-oxo-naphthalen-3-yl)carbonyl)-L-alanine]
6.30 to 7.00 | C[C@@]1(c2ccc(Cl)cc2)C(=O)C(C(=O)NCC(=O)O)=C(O)c2cc(Cl)ccc21 (single isomer, unassigned) [Example 29]
> 7.00 | COc1ccc2c(c1)C1(CCOCC1)C(=O)C(C(=O)NCC(=O)O)=C2O [Example 19, N-((4-Hydroxy-7-(methyloxy)-2-oxo-2′,3′,5′,6′-tetrahydro-spiro[naphthalene-1,4′-pyran]-3-yl)carbonyl)glycine]
> 7.00 | O=C(O)CNC(=O)C1=C(O)c2cc(Cl)c(Cl)cc2C2(CCOCC2)C1=O [Example 62, N-((6,7-Dichloro-4-hydroxy-2-oxo-2′,3′,5′,6′-tetrahydro-spiro[naphthalene-1,4′-pyran]-3-yl)carbonyl)glycine]
> 7.00 | CC1(C)C(=O)C(C(=O)NCC(=O)O)=C(O)c2ccc(Cl)c(Cl)c21 [Example 31, N-((7,8-Dichloro-4-hydroxy-1,1-dimethyl-2-oxo-naphthalen-3-yl)carbonyl)glycine]

More lines, now with the values behind:

SMILES | pIC50
O=C(O)CNC(=O)C1=C(O)c2cc(Cl)ccc2[C@]2(CCCOC2)C1=O [Example 76, N-(((1S)-6-Chloro-4-hydroxy-2-oxo-5′,6′-dihydro-spiro[naphthalene-1,3′-pyran]-3-yl)carbonyl)glycine] | 6.30 to 7.00
CC1(C)C(=O)C(C(=O)NCC(=O)O)=C(O)c2ccc(C#Cc3ccccc3)cc21 [Example 110, 2-(2-Hydroxy-1,1-dimethyl-4-oxo-7-(2-phenylethynyl)-1,4-dihydronaphthalene-3-carboxamido)acetic acid] | 6.30 to 7.00
O=C(O)CNC(=O)C1=C(O)c2cc(Cl)ccc2[C@@]2(CCCOC2)C1=O [Example 77, N-(((1R)-6-Chloro-4-hydroxy-2-oxo-5′,6′-dihydro-spiro[naphthalene-1,3′-pyran]-3-yl)carbonyl)glycine] | > 7.00
CC1(C#N)C(=O)C(C(=O)NCC(=O)O)=C(O)c2ccc(Br)cc21 (stereo not shown) [Example 132, 2-(7-bromo-1-cyano-4-hydroxy-1-methyl-2-oxo-1,2-dihydronaphthalene-3-carboxamido) acetic acid] | > 7.00
CC1(C)C(=O)C(C(=O)NCC(=O)O)=C(O)c2c(F)cccc21 [Example 81, N-((5-Fluoro-4-hydroxy-1,1-dimethyl-2-oxo-naphthalen-3-yl)carbonyl)glycine] | > 7.00
CC1(C)C(=O)C(C(=O)NCC(=O)O)=C(O)c2cc(Cl)cc(F)c21 [Example 57, N-((6-Chloro-8-fluoro-4-hydroxy-1,1-dimethyl-2-oxo-naphthalen-3-yl)carbonyl)glycine] | > 7.00
CC1(C)C(=O)C(C(=O)NCC(=O)O)=C(O)c2cc(-c3ccccc3Cl)ccc21 [Example 37] | 6.00 to 6.30
